Where two headings read alike, the source gives them in different places.
Assays:
[1] = system: STZ-induced central sensitization in Sprague-Dawley rats; assay: PWT (von Frey), streptozotocin rat model of central sensitization (Example 4); assay type: in vivo; conditions: 0.7% sulindac hydrogel 3 times a day for 1 week; 5% lidocaine cream once 30 min before; pregabalin 10 mg/kg orally once 1 h before
Protocol: Sprague-Dawley rats were fasted for 4-6 hours before being injected intraperitoneally with 45 mg/kg STZ. This was performed for all experimental groups, except the naive group. In order to prevent hypoglycaemic death, rats received 10% sucrose water as the sole water source for the first 48 hours after injection. In order to ensure only those rats considered diabetic (i.e., having non-fasting plasma glucose levels of >250 mg/dL) were included in the study, blood glucose was measured at 72 hours after the STZ injection.
Four weeks after STZ injection, the rats were randomised into treatment groups. This delay between STZ injection and treatment allows the establishment of chronic pain (allodynia) associated with central sensitization. […] 5% lidocaine cream (positive control) was applied only once to both hind paws of the rats 30 minutes before measurement of PWT.
The rats were split into 8 study groups, with those in the experimental groups (1-4) having an average body weight of about 225 g, and those in the control groups (5-8) having an average body weight of about 335 g, as follows: • 1. Group 1: naive rats (n=5) • 2. Group 2: STZ only (n=6) • 3. Group 3: STZ plus vehicle (n=6) • 4. […] Group 5: STZ plus oral vehicle (n=8) • 6. Group 6: STZ plus 0.7% sulindac hydrogel (n=7) • 7. Group 7: STZ plus 5% lidocaine cream (n=8) • 8.

[2] = system: PHN induced by HSV-1 KOS strain virus in BALB/c mice; assay: PWT (von Frey), HSV-1 mouse model of PHN, topical (Example 20); assay type: in vivo; conditions: Post-inoculation and treatment, sulindac 5% gel on both hind paws three times a day for three days
Protocol: PHN was induced in mice by infecting them with the HSV-1 KOS strain virus and following established protocols (Ou et al, Front Immunol, 14, 1026269, 2023; Takasaki et al, Anesthesiology, 96(5), 1168-74, 2002).
; Reckitt Benckiser). Three days later, HSV-1 (10^6 PFUs in 20 μl PBS) was inoculated on the shin of the right hind paw (5×5 mm) after scarification with sandpaper. The virus was applied directly to the scarified area. The contralateral hind paw was without inoculation. Mock infection was performed using the same virus inactivated by heating at 60° C. for 1 h.
. Group 1: sham inoculated (n=5-7) • 2.
In a second experiment, the effect of the parent compound, sulindac, was tested in the same mouse model. Five days post-inoculation, sulindac (as a 5% gel), or vehicle control were administered topically onto both hind paws of mice three times a day for three days.
. Group 1: vehicle control (n=5-7) • 2. Group 2: sulindac 5% (n=5-7)

[3] = Pharmacokinetics and biodistribution after topical PS 8% ointment to hind paws (Example 25); assay type: in vivo, mouse; conditions: all tissues except the sciatic nerve (higher) and DRG (equal)
Protocol: At 0.5, 1, 3, 5, 12, 18, and 24 h, mice (n=4-5 mice/time point) were euthanized with CO2 inhalation. Blood was drawn immediately after death. Tissues, including paw skin, paw muscle, leg muscle, the sciatic nerve and lumbar DRG bilaterally were dissected quickly, immediately frozen in liquid nitrogen and stored at −80° C. until analyzed.

[4] = PS and metabolites in proximal and distal half of the sciatic nerve (Example 25); assay type: in vivo, mouse; conditions: sciatic nerve halves, 30 min after last dose
Protocol: In a separate experiment we studied 8 mice with paclitaxel-induced PN treated with PS 8% ointment 3×/d for 2 wks. Mice were euthanized as above 30 minutes after the last dose of PS. From these mice we harvested both sciatic nerves dividing each into proximal and distal halves, and combined the corresponding halves of every two animals for assay of drug levels.

[5] = Pharmacokinetics and biodistribution after 3% PS gel on outer surface of eyelid (Example 26); assay type: in vivo, rabbit; conditions: rabbits, 3% PS gel on outer surface of upper eyelids; for AUC(0-t): read-out: AUC0-24 h; for concentration at 0.5 h / concentration at 1 h / concentration at 2 h / concentration at 4 h / concentration at 8 h / concentration at 24 h: topical, read-out: Amount in tissue, Mean ± SEM
Protocol: The pharmacokinetics and biodistribution of 3% PS gel applied to the outer surface of both upper eyelids was studies in male New Zealand White rabbits.
Eyelid and tissues of the globe were dissected and frozen quickly in liquid nitrogen until the levels of PS and its metabolites were determined by HPLC as described Xie et al. (Br J Pharmacol (2012);165:2152-66).

[6] = system: paclitaxel-induced central sensitization in C57/BL/6J mice; conditions: day 14; PS hydrogel 5% or 0.7% sulindac 3 times a day; 5% lidocaine cream once 30 min before; pregabalin 10 mg/kg orally once 1 h before
Protocol: Regarding the treatment with lidocaine: 5% lidocaine cream (a positive control) was applied once to both hind paws of the mice 30 minutes before measurement of PWT.
Briefly, for mechanical allodynia, pain threshold responses were measured using the well-established method of von Frey filaments in line with that performed in the earlier Examples. The PWT test was performed on day-8 (before the first dose of paclitaxel), the day of starting treatment (day 0, at which central sensitization was fully established) and day 14 (treatment continued until day 15). The mechanical threshold, expressed as g, indicates the force of the von Frey filament to which the animal reacted.

[7] = system: NTG-induced chronic migraine in mice; assay: PWT (von Frey), NTG-induced chronic migraine model, oral (Example 16)
Protocol: In particular, mice receive sublingual NTG 0.4 mg in the form of a finely crushed 0.4 mg NTG tablet (Greenstone Brand) every two days, receiving a total of five doses. For control mice, an NTG placebo (Practi-Nitroglycerin Sublingual 0.4 mg Simulated Medication tablet) was administered in the same way.
Group 1: placebo NTG (i.e, no NTG treatment, n=8) • 2. Group 2: NTG (n=8) • 3. Group 3: NTG+vehicle (n=8) • 4. […] Group 5: NTG+sulindac (n=8)
Mechanical allodynia was determined using von Frey filaments in line with that performed in the earlier Examples. The PWT test was performed prior to NTG (or placebo NTG) administration to determine baseline values, as indicated. […] The mechanical threshold, expressed as g, indicates the force of the von Frey filament to which the animal reacted.

[8] = system: NTG-induced migraine in C57BL/6J mice; assay: PWT (von Frey), NTG-induced migraine mouse model, topical (Example 13)
Protocol: Specifically, instead of the intraperitoneal injection of NTG, a finely crushed 0.4 mg NTG tablet (Greenstone Brand) was administered sublingually. As a control, a Practi-Nitroglycerin Sublingual 0.4 mg Simulated Medication tablet was used.
For determining mechanical allodynia, pain threshold responses were measured using the well-established method of von Frey filaments in line with that performed in the earlier Examples.
The PWT test, assessing mechanical allodynia, was performed 30 minutes after treatment. The mechanical threshold, expressed as g, indicates the force of the von Frey filament to which the animal reacted.

[9] = male, New Zealand White, rabbit, topical or ocular, conjunctiva
[10] = male, New Zealand White, rabbit, topical or ocular, cornea
[11] = male, New Zealand White, rabbit, topical or ocular, eyelid
[12] = male, New Zealand White, rabbit, AH (aqueous humor)
[13] = male, New Zealand White, rabbit, conjunctiva
[14] = male, New Zealand White, rabbit, cornea
[15] = male, New Zealand White, rabbit, eyelid
[16] = male, New Zealand White, rabbit, vitreous

CC1=C(CC(=O)O)c2cc(F)ccc2/C1=C\c1ccc([S+](C)[O-])cc1 (centres unmarked) [sulindac]
PWT, gm Mean ± SEM [1]: 23.2 ± 2.6 gm
PWT, g Mean ± SEM [2]: 0.56 ± 0.06 g
PWT, g Mean ± SEM ([2]; listed as Sulindac): 0.56 ± 0.06 g
sulindac levels relative to those of PS [3]: around 25%
Fold difference (distal vs proximal) [4]: 8.5 fold
Tmax ([5]; eyelid): 1 h
Cmax [5, 9]: 800 nM
AUC(0-t) [5, 9]: 2.5 ± 0.3 µM·h
Tmax ([5]; male, New Zealand White, rabbit, topical or ocular, conjunctiva, read-out: TMax): 8 h
Cmax [5, 10]: 600 nM
half-life [5, 10]: 7.4 h
AUC(0-t) [5, 10]: 2.4 ± 0.5 µM·h
Cmax [5, 11]: 3600 nM
half-life [5, 11]: 1.1 h
AUC(0-t) [5, 11]: 5.5 ± 0.8 µM·h
concentration at 0.5 h [5, 12]: 0 nM
concentration at 1 h [5, 12]: 0 nM
concentration at 2 h [5, 12]: 0 nM
concentration at 4 h [5, 12]: 0 nM
concentration at 8 h [5, 12]: 0 nM
concentration at 24 h [5, 12]: 0 nM
concentration at 0.5 h [5, 13]: 100 ± 100 nM
concentration at 1 h [5, 13]: 200 ± 100 nM
concentration at 2 h [5, 13]: 0 nM
concentration at 4 h [5, 13]: 100 ± 100 nM
concentration at 8 h [5, 13]: 800 ± 500 nM
concentration at 24 h [5, 13]: 0 nM
concentration at 0.5 h [5, 14]: 400 ± 200 nM
concentration at 1 h [5, 14]: 600 ± 100 nM
concentration at 2 h [5, 14]: 0 nM
concentration at 4 h [5, 14]: 300 ± 100 nM
concentration at 8 h [5, 14]: 200 ± 200 nM
concentration at 24 h [5, 14]: 0 nM
concentration at 0.5 h [5, 15]: 1000 ± 100 nM
concentration at 1 h [5, 15]: 3600 ± 1200 nM
concentration at 2 h [5, 15]: 0 nM
concentration at 4 h [5, 15]: 500 ± 200 nM
concentration at 8 h [5, 15]: 0 nM
concentration at 24 h [5, 15]: 0 nM
concentration at 0.5 h [5, 16]: 0 nM
concentration at 1 h [5, 16]: 0 nM
concentration at 2 h [5, 16]: 0 nM
concentration at 4 h [5, 16]: 0 nM
concentration at 8 h [5, 16]: 0 nM
concentration at 24 h [5, 16]: 0 nM
PWT, g Mean ± SEM [6]: 0.62 ± 0.05 g
PWT, g Mean ± SEM ([7]; Baseline, prior to NTG administration): 1.80 ± 0.12 g
PWT, g Mean ± SEM ([7]; Day 11, orally once a day for 11 days concurrent with NTG, PS 50 mg/kg, sulindac 33 mg/kg): 0.43 ± 0.03 g
PWT Post-treatment Mean ± SEM ([8]; 30 min after treatment, PS 8% gel or sulindac 5.3% (in DMSO) on both hind paws 30 min after NTG): 0.55 ± 0.02 g
PWT Baseline Mean ± SEM ([8]; baseline of the group, before NTG and treatment): 1.43 ± 0.15 g

Source: patent US20250345350A1, “TREATING PAIN ASSOCIATED WITH CENTRAL SENSITIZATION” (Medicon Pharmaceuticals, Inc., priority 2022, published 2025)
